The source of these data is patent publication US20260209214A1, “LSD1 MODULATORS” (RECURSION PHARMACEUTICALS, INC., priority 2022, published 2026).

The assay concerns the target Recombinant human LSD1 (Homo sapiens, UniProt O60341). The experiment in a line: LSD1 inhibition assay (HTRF LSD1 Histone H3K4 mono-demethylation assay, me1->me0). In kind it is biochemical. The settings on record: 20 nM recombinant human LSD1, 95 nM H3K4(me1) biotinylated peptide, 15 min preincubation, 60 min at 25° C., read-out: LSD1 inhibition IC50 (nM range). The method, boiled down: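 HTRF demethylation (me1->me0) read-out: streptavidin-XL665 and anti-H3K4me0 cryptate added after reaction, ratio measured after 90 min dark. Reaction: 95 nM H3K4me1 biotin-peptide, 20 nM LSD1 (15-min compound pre-incubation), 60 min, 25 °C, buffer pH 8.5 plus FAD and DTT; 4-parameter logistic IC50.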

Molecules are shown by their SMILES. Where only a bound is given, the exact number is not on record here.

One may read the IC50 as the midpoint of a concentration-inhibition curve.

Consider `N#Cc1ccc(-c2cccc(CC3CNCCO3)c2-c2ccns2)cc1` (centres unmarked) [Example 1, 3′-[(morpholin-2-yl)methyl]-2′-(1,2-thiazol-5-yl)-[1,1′-biphenyl]-4-carbonitrile], for which the half-maximal inhibitory concentration (IC50) lay within 10 to 25 nM.

As to `CNC1CCN(Cc2cccc(-c3ccc(C#N)c(F)c3)c2-c2cnco2)C1` (centres unmarked) [Example 336, 3-fluoro-3'-{[3-(methylamino)pyrrolidin-1-yl]methyl}-2'-(1,3-oxazol-5-yl)-[1,1'-biphenyl]-4-carbonitrile], the IC50 fell in the range of 10 to 25 nM.

Consider `N#Cc1ccc(-c2cc(CC3CNCCO3)ccc2N2CCOCC2)cc1F` (centres unmarked) [Example 167, 3-fluoro-5′-[(morpholin-2-yl)methyl]-2′-(morpholin-4-yl)-[1,1′-biphenyl]-4-carbonitrile], for which the 50% inhibitory concentration (IC50) was greater than 1000 nM.

On to `N#Cc1ccc(-c2cc(CN3C[C@]4(N)CC[C@H]3C4)cc(N3CCCC3)c2)cc1F` [Example 294, 4-[3-[[(1S,4S)-4-amino-2-azabicyclo[2.2.1]heptan-2-yl]methyl]-5-pyrrolidin-1-yl-phenyl]-2-fluoro-benzonitrile], for which the IC50 was in the range of 100 to 1000 nM.

Turning to `COc1cnc(-c2ccc(CC3CNCCO3)cc2-c2ccc(C#N)c(F)c2)cn1` (centres unmarked) [Example 132, 3-fluoro-2′-(5-methoxypyrazin-2-yl)-5′-[(morpholin-2-yl)methyl]-[1,1′-biphenyl]-4-carbonitrile], the concentration for half-maximal inhibition (IC50) was greater than 1000 nM.

For the compound `N#Cc1ccc(-c2cccc(CC3CNCCO3)c2-c2cncs2)cc1F` (centres unmarked) [Example 48, 3-fluoro-3′-[(morpholin-2-yl)methyl]-2′-(1,3-thiazol-5-yl)-[1,1′-biphenyl]-4-carbonitrile], the IC50 lay within 10 to 25 nM.

Take `N#Cc1ccc(-c2cccc(CN3[C@@H]4CC[C@H]3[C@@H](N)C4)c2-c2ccns2)cc1F` [Example 192, N[C@H]1C[C@H]2CC[C@@H]1N2Cc3cccc(c4ccc(C#N)c(F)c4)c3c5ccns5]: the IC50 is less than 10 nM.

Consider `N#Cc1ccc(-c2cccc(CN3CC4(N)CCC3CC4)c2Cl)cc1F` [Example 328, 3'-({4-amino-2-azabicyclo[2.2.2]octan-2-yl}methyl)-2'-chloro-3-fluoro-[1,1'-biphenyl]-4-carbonitrile], for which the half-maximal inhibitory concentration (IC50) lay in the range of 100 to 1000 nM.

For `N#Cc1ccc(-c2cccc(CN3[C@@H]4CC[C@H]3[C@@H](N)C4)c2OC(F)F)cc1F` (single isomer, unassigned) [Example 183], the half-inhibitory concentration (IC50) was less than 10 nM.

Consider `N#Cc1ccc(-c2cccc(CN3CC[C@@H]4NCCC[C@@H]43)c2C2CC2)cc1F` [Example 271, Fc1cc(ccc1C#N)c2cccc(CN3CC[C@@H]4NCCC[C@H]34)c2C5CC5], for which the half-inhibitory concentration (IC50) was in the range of 100 to 1000 nM.

As to `Cc1cc(NC[C@@H]2CNCCO2)c(Cl)c(-c2ccc(C#N)c(F)c2)c1` (single isomer, unassigned) [Example 87], the IC50 is greater than 1000 nM.

Take `N#Cc1ccc(-c2cccc(CC3CNCCO3)c2-c2cocn2)cc1F` (centres unmarked) [Example 92, 3-fluoro-3′-[(morpholin-2-yl)methyl]-2′-(1,3-oxazol-4-yl)-[1,1′-biphenyl]-4-carbonitrile]: the IC50 is 100 to 1000 nM.

As for `CC(C)(c1ccc(N2CCC2)c(-c2ccc(C#N)c(F)c2)c1)C1CNCCO1` (centres unmarked) [Example 136, 2′-(azetidin-1-yl)-3-fluoro-5′-[2-(morpholin-2-yl)propan-2-yl]-[1,1′-biphenyl]-4-carbonitrile], the IC50 was greater than 1000 nM.

On to `N#Cc1ccc(-c2cc(CN3[C@@H]4CC[C@H]3[C@@H](N)C4)ccc2CC2COC2)cc1F` (racemic) [Example 246, 5'-{[(1S,2S,4R)-2-amino-7-azabicyclo[2.2.1]heptan-7-yl]methyl}-3-fluoro-2'-[(oxetan-3-yl)methyl]-[1,1'-biphenyl]-4-carbonitrile], for which the 50% inhibitory concentration (IC50) lay within 100 to 1000 nM.

Turning to `CN(C)C1CCN(c2cccc(-c3ccc(C#N)c(F)c3)c2-c2cnco2)CC1` [Example 95, 3'-[4-(dimethylamino)piperidin-1-yl]-3-fluoro-2'-(1,3-oxazol-5-yl)-[1,1'-biphenyl]-4-carbonitrile], the IC50 lay within 25 to 100 nM.

Turning to `C[C@@]1(O)C[C@H]2CN(c3ccc(CC4CNCCO4)cc3-c3ccc(C#N)c(F)c3)C[C@H]2C1` (mixture of isomers) [Example 114, 2′-[(3aR,5S,6aS)-5-hydroxy-5-methyl-octahydrocyclopenta[c]pyrrol-2-yl]-3-fluoro-5′-[(morpholin-2-yl)methyl]-[1,1′-biphenyl]-4-carbonitrile], the IC50 lay in the range of 100 to 1000 nM.

As for `COc1ccc(-c2ccc(CC3CNCCO3)cc2-c2ccc(C#N)c(F)c2)nc1` (centres unmarked) [Example 133, 3-fluoro-2′-(5-methoxypyridin-2-yl)-5′-[(morpholin-2-yl)methyl]-[1,1′-biphenyl]-4-carbonitrile], the IC50 lay within 100 to 1000 nM.

In the case of `N#Cc1ccc(-c2cccc(CN3[C@@H]4CC[C@H]3[C@@H](N)C4)c2-c2ccns2)cc1` (racemic) [Example 170, 3'-{[(1S,2S,4R)-2-amino-7-azabicyclo[2.2.1]heptan-7-yl]methyl}-2'-(1,2-thiazol-5-yl)-[1,1'-biphenyl]-4-carbonitrile], the IC50 lay in the range of 10 to 25 nM.

For `N#Cc1ccc(-c2cccc(Cn3ncc4c3CNCC4)c2-c2cncs2)cc1F` [Example 280, 3-fluoro-3'-({1H,4H,5H,6H,7H-pyrazolo[3,4-c]pyridin-1-yl}methyl)-2'-(1,3-thiazol-5-yl)-[1,1'-biphenyl]-4-carbonitrile], the IC50 was in the range of 100 to 1000 nM.

With `CNC1CCN(c2cccc(-c3ccc(C#N)c(F)c3)c2-c2ccns2)CC1` [Example 81, 3-fluoro-3'-[4-(methylamino)piperidin-1-yl]-2'-(1,2-thiazol-5-yl)-[1,1'-biphenyl]-4-carbonitrile], the concentration for half-maximal inhibition (IC50) is 10 to 25 nM.

Take `CN(CC1CC1)c1c(CN2[C@@H]3CC[C@H]2[C@@H](N)C3)cccc1-c1ccc(C#N)c(F)c1` (racemic) [Example 269, 3'-{[(1S,2S,4R)-2-amino-7-azabicyclo[2.2.1]heptan-7-yl]methyl}-2'-[(cyclopropylmethyl)(methyl)amino]-3-fluoro-[1,1'-biphenyl]-4-carbonitrile]: the IC50 lay in the range of 100 to 1000 nM.

With `N#Cc1ccc(-c2cc(CC3CNCCO3)ccc2N2CCC(C3CCOC3)CC2)cc1F` (centres unmarked) [Example 100, 3-fluoro-5′-[(morpholin-2-yl)methyl]-2′-[4-(oxolan-3-yl)piperidin-1-yl]-[1,1′-biphenyl]-4-carbonitrile], the IC50 was 25 to 100 nM.

Regarding `N#Cc1ccc(-c2cc(CN3[C@@H]4CC[C@H]3[C@@H](N)C4)ccc2-c2ccc(F)cn2)cc1F` (racemic) [Example 258, 5'-{[(1S,2S,4R)-2-amino-7-azabicyclo[2.2.1]heptan-7-yl]methyl}-3-fluoro-2'-(5-fluoropyridin-2-yl)-[1,1'-biphenyl]-4-carbonitrile], the IC50 lay within 25 to 100 nM.

For the compound `CNC1CCN(c2cccc(-c3ccc(C#N)c(F)c3)c2-c2cncs2)CC1` [Example 116, 3-fluoro-3'-[4-(methylamino)piperidin-1-yl]-2'-(1,3-thiazol-5-yl)-[1,1'-biphenyl]-4-carbonitrile], the IC50 lay in the range of 10 to 25 nM.

On to `N#Cc1ccc(-c2cccc(CN3CCCC34CCCNC4)c2Cl)cc1F` (centres unmarked) [Example 327, 2'-chloro-3'-({1,7-diazaspiro[4.5]decan-1-yl}methyl)-3-fluoro-[1,1'-biphenyl]-4-carbonitrile], for which the IC50 is greater than 1000 nM.

As to `CN[C@H]1CCCCN(Cc2cccc(-c3ccc(C#N)c(F)c3)c2C2CC2)C1` [Example 272, 2'-cyclopropyl-3-fluoro-3'-{[(3S)-(methylamino)azepan-1-yl]methyl}-[1,1'-biphenyl]-4-carbonitrile], the 50% inhibitory concentration (IC50) fell in the range of 100 to 1000 nM.

Take `N#Cc1ccc(-c2cccc(CN3[C@@H]4CC[C@H]3[C@@H](N)C4)c2C2=CCOCC2)cc1F` (racemic) [Example 249, 3'-{[(1S,2S,4R)-2-amino-7-azabicyclo[2.2.1]heptan-7-yl]methyl}-2'-(3,6-dihydro-2H-pyran-4-yl)-3-fluoro-[1,1'-biphenyl]-4-carbonitrile]: the concentration for half-maximal inhibition (IC50) lay within 25 to 100 nM.

`CC(C)Oc1c(CN2[C@@H]3CC[C@H]2[C@@H](N)C3)cccc1-c1ccc(C#N)c(F)c1` (racemic) [Example 213]: the IC50 was 25 to 100 nM.

Take `CC(C)N[C@@H]1C[C@@H]2CC[C@H]1N2Cc1cccc(-c2ccc(C#N)c(F)c2)c1C1CC1` (single isomer, unassigned) [Example 248]: the IC50 fell in the range of 100 to 1000 nM.

Take `Cc1cc(CN2C[C@@H]3C[C@H]2CN3C(C)C)c(Cl)c(-c2ccc(C#N)c(F)c2)c1` [Example 297, 2'-chloro-3-fluoro-5'-methyl-3'-{[(1S,4S)-5-(propan-2-yl)-2,5-diazabicyclo[2.2.1]heptan-2-yl]methyl}-[1,1'-biphenyl]-4-carbonitrile]: the IC50 was in the range of 100 to 1000 nM.

For `N#Cc1ccc(-c2cc(C[C@@H]3CN4CCC[C@H]4CO3)ccc2N2CCC2)cc1F` [Example 131, 5′-{[(3R,8aS)-hexahydro-1H-pyrrolo[2,1-c][1,4]oxazin-3-yl]methyl}-2′-(azetidin-1-yl)-3-fluoro-[1,1′-biphenyl]-4-carbonitrile], the half-maximal inhibitory concentration (IC50) is greater than 1000 nM.

Consider `N#Cc1ccc(-c2cccc(CN3[C@H]4CC[C@@H]3[C@H](N)C4)c2C2CC2)cc1F` (single isomer, unassigned) [Example 186], for which the IC50 fell in the range of 10 to 25 nM.

As for `N#Cc1ccc(-c2cc(CC3CNCCO3)ccc2C2CCOCC2)cc1F` (centres unmarked) [Example 158, 3-fluoro-5′-[(morpholin-2-yl)methyl]-2′-(oxan-4-yl)-[1,1′-biphenyl]-4-carbonitrile], the half-inhibitory concentration (IC50) is greater than 1000 nM.

For the compound `CN[C@@H]1C[C@@H]2CC[C@H]1N2Cc1cccc(-c2ccc(C#N)cc2)c1-c1ccns1` (single isomer, unassigned) [Example 173], the half-maximal inhibitory concentration (IC50) is less than 10 nM.

Regarding `CC(C)C1(O)CCN(c2ccc(CC3CNCCO3)cc2-c2ccc(C#N)c(F)c2)CC1` (centres unmarked) [Example 79, 3-fluoro-2′-[4-hydroxy-4-(propan-2-yl)piperidin-1-yl]-5′-[(morpholin-2-yl)methyl]-[1,1′-biphenyl]-4-carbonitrile], the IC50 was in the range of 10 to 25 nM.
